Key:
Stearoyl-CoA desaturase = molecular target: T1, Stearoyl-CoA desaturase (Homo sapiens, UniProt O00767); test: Inhibition of stearoyl-CoA delta9 desaturase in human HepG2 cells; type: cell-based
T1 sequence (O00767 whole entry): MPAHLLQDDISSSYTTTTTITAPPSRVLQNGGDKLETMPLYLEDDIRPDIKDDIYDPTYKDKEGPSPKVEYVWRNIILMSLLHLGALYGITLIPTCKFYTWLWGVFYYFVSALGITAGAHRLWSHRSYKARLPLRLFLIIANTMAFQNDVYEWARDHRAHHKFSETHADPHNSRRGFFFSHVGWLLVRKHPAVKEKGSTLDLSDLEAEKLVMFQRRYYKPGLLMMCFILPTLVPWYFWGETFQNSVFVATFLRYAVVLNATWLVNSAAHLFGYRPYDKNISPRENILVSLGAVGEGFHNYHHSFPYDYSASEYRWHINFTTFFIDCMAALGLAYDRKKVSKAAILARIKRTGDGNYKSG

[1] = Metabolic stability in human liver microsome after 30 mins; type: ADME; conditions: liver microsomes, read-out: Stability
[2] = Metabolic stability in Sprague-Dawley rat liver microsome after 30 mins; type: ADME; conditions: liver microsomes, read-out: Stability
Rattus norvegicus [3] = test: Dose normalized AUC in Sprague-Dawley rat at 1 mg/kg, po; type: ADME, organism-based; parameters: dose 1 mg/kg, route oral; conditions: in vivo
[4] = Cmax in Sprague-Dawley rat at 1.5 mg/kg, po; type: ADME, organism-based; parameters: dose 1.5 mg/kg, route oral; conditions: in vivo
[5] = Oral bioavailability in Sprague-Dawley rat at 1.5 mg/kg; type: ADME, organism-based; conditions: in vivo
[6] = Plasma clearance in Sprague-Dawley rat plasma at 1 mg/kg, iv; type: ADME, organism-based; parameters: dose 1 mg/kg, route intravenous
[7] = Terminal volume of distribution in Sprague-Dawley rat at 1.5 mg/kg, po and 1 mg/kg, iv; type: ADME, organism-based; conditions: in vivo, read-out: Vbeta
[8] = Elimination half life in Sprague-Dawley rat at 1 mg/kg, iv; type: ADME, organism-based; parameters: dose 1 mg/kg, route intravenous; conditions: in vivo, read-out: beta t1/2 (converted)
Acyl-CoA desaturase 1 = molecular target: T2, Acyl-CoA desaturase 1 (Rattus norvegicus, UniProt P07308); test: Inhibition of stearoyl-CoA delta9 desaturase in rat microsome
T2 sequence (P07308 whole entry): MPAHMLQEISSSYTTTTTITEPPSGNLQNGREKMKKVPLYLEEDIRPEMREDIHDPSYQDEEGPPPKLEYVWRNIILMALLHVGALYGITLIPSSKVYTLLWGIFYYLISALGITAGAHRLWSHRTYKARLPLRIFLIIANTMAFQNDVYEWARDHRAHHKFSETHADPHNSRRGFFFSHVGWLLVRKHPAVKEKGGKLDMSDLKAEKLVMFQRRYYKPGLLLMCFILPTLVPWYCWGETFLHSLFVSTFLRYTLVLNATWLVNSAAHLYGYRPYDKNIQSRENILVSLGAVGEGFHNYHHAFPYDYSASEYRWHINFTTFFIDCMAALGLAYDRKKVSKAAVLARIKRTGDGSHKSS

[9] = Apparent permeability from apical to basolateral side of human Caco-2 cells; type: ADME, cell-based
[10] = Apparent permeability from basolateral to apical side of human Caco-2 cells; type: ADME, cell-based
[11] = molecular target: Acyl-CoA (8-3)-desaturase (Rattus norvegicus, UniProt Q920R3); test: Inhibition of stearoyl-CoA delta5 desaturase in rat microsome
Acyl-CoA 6-desaturase = Acyl-CoA 6-desaturase (Rattus norvegicus, UniProt Q9Z122); test: Inhibition of stearoyl-CoA delta6 desaturase in rat microsome
Rattus norvegicus [12] = test: Inhibition of stearoyl-CoA delta9 desaturase in high-carbohydrate diet-fed Sprague-Dawley rat dosed orally BID for 5 days assessed as reduction in liver palmitoleic and vaccenic acid level; type: functional, organism-based
Rattus norvegicus [13] = test: Inhibition of stearoyl-CoA delta9 desaturase in high-carbohydrate diet-fed Sprague-Dawley rat dosed orally BID for 5 days assessed as reduction in plasma palmitoleic and vaccenic acid level; type: functional, organism-based
Rattus norvegicus [14] = test: Reduction in liver triglyceride level in high-carbohydrate diet-fed Sprague-Dawley rat at 20 mg/kg, po, BID after 5 days measured after 4 hrs of last dose relative to control; type: functional; parameters: scale not given: the % may be the effect or the level left

Chain of Acyl-CoA 6-desaturase (Q9Z122 whole entry): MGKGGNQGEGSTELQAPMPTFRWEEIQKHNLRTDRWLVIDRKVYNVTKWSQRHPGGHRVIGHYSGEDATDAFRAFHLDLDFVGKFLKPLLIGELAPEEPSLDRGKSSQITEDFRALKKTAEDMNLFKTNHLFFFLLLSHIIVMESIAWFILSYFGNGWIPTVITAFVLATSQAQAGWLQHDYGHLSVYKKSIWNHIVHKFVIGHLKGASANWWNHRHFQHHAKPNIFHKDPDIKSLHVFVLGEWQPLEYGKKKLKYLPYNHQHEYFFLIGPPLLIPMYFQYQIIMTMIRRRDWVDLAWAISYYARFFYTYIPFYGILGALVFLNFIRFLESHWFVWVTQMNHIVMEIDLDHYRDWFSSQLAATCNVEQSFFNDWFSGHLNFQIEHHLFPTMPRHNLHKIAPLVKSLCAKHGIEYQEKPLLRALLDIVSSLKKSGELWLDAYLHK
Chain of Acyl-CoA (8-3)-desaturase (Q920R3 whole entry): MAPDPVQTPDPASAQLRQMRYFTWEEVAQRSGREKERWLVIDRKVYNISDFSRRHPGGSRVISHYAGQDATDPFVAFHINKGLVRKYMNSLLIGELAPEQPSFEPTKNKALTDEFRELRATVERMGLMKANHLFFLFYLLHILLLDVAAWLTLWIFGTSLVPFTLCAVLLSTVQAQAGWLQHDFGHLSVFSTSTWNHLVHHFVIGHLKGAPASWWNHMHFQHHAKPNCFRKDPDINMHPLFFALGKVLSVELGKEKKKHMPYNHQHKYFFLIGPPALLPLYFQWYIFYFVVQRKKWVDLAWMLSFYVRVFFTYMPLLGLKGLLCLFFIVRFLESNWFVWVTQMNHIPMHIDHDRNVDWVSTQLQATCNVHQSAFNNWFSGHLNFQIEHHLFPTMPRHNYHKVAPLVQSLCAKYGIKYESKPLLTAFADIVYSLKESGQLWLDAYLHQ

Row | Structure (SMILES) | IC50 (Stearoyl-CoA desaturase) [nM] | remaining at 0.5 h [1] [%] | remaining at 0.5 h [2] [%] | IC50 (Acyl-CoA desaturase 1) [nM] | other results
1 | O=C(CO)NCCN1C(=O)COc2ccc(NCc3ccc(Cl)c(Cl)c3)cc21 | 0.5 | 32 | 14 | – | AUC (Rattus norvegicus [3]): 122 ng·h/mL; Cmax [4]: 427 ng/mL; bioavailability [5]: 39%; clearance [6]: 53 mL/min/kg; Vd [7]: 4.89 L/kg; half-life [8]: 1.07 h
2 | CC1(C)Oc2ccc(NCc3ccc(Cl)c(Cl)c3)cc2N(CCNC(=O)CO)C1=O | – | 3.1 | 9.6 | 12 | –
3 | O=C(CO)Nc1ccc2ncn(Cc3ccc(Cl)c(Cl)c3)c(=O)c2c1 | 119 | – | – | – | AUC (Rattus norvegicus [3]): 935 ng·h/mL; Cmax [4]: 360 ng/mL; Vd [7]: 2.06 L/kg
4 | Cc1nc2ccc(NCc3cccc(C(F)(F)F)c3)cc2n(CCNC(=O)CO)c1=O | – | 56 | 54 | 38 | AUC (Rattus norvegicus [3]): 148 ng·h/mL; Cmax [4]: 374 ng/mL; bioavailability [5]: 78%; clearance [6]: 88.1 mL/min/kg; Vd [7]: 7.22 L/kg; half-life [8]: 0.95 h; Papp A→B [9]: 6.8 ×10⁻⁶ cm/s; Papp B→A [10]: 48.2 ×10⁻⁶ cm/s; IC50 [11]: > 30000 nM; IC50 (Acyl-CoA 6-desaturase): > 30000 nM; Activity (Rattus norvegicus [12]): Dose-dependent effect; Activity (Rattus norvegicus [13]): Dose-dependent effect; Activity (Rattus norvegicus [14]): 50%
5 | COc1ccc(-c2nc3ccc(NCc4ccc(Cl)c(C(F)(F)F)c4)cc3n(CCNC(C)=O)c2=O)cc1 | – | – | – | 0.6 | –
6 | Cc1nc2ccc(NCc3cccc(C(F)(F)F)c3)cc2n(CCNC(=O)[C@@H](C)O)c1=O | – | – | – | 3900 | –
7 | Cc1nc2ccc(NCc3cccc(C(F)(F)F)c3)cc2n(CCNC(=O)[C@H](C)O)c1=O | – | – | – | 8000 | –
8 | CC(C)c1nc2ccc(NCc3cccc(C(F)(F)F)c3)cc2n(CCNC(=O)CO)c1=O | – | – | – | 2800 | –
9 | Cc1nc2ccc(NCc3cccc(C(F)(F)F)c3)cc2n(CCNC(=O)C(O)CO)c1=O (racemic) | 68 | – | – | 268 | –
10 | O=C(CO)Nc1ccc2ncn(Cc3ccc(Cl)c(C(F)(F)F)c3)c(=O)c2c1 | – | – | – | – | AUC (Rattus norvegicus [3]): 451 ng·h/mL; Cmax [4]: 439 ng/mL; Vd [7]: 1.46 L/kg
11 | CC1Oc2ccc(NCc3ccc(Cl)c(Cl)c3)cc2N(CCNC(=O)CO)C1=O (racemic) | – | 2.3 | 1.5 | 80 | –
12 | COc1ccc(-c2nc3ccc(NCc4cccc(C(F)(F)F)c4)cc3n(CCNC(C)=O)c2=O)cc1 | 33 | – | – | 93 | –
13 | O=C(CO)NCCn1c(=O)c(C(F)(F)F)nc2ccc(NCc3cccc(C(F)(F)F)c3)cc21 | 2.7 | 19 | 77 | 1.9 | –
14 | COc1ccc(-c2nc3ccc(NCc4ccc(Cl)c(Cl)c4)cc3n(CCNC(C)=O)c2=O)cc1 | – | 83 | 54 | 110 | AUC (Rattus norvegicus [3]): 0 ng·h/mL
15 | Cc1nc2ccc(NCc3cccc(C(F)(F)F)c3)cc2n(CCNC(=O)CCO)c1=O | – | – | – | 1100 | –
16 | CC(=O)NCCn1c(=O)c(C)nc2ccc(NCc3cccc(C(F)(F)F)c3)cc21 | – | – | – | 162 | –
17 | CC(C)(C)c1nc2ccc(NCc3cccc(C(F)(F)F)c3)cc2n(CCNC(=O)CO)c1=O | – | – | – | > 3000 | –
18 | Cc1nc2ccc(NCc3cccc(C(F)(F)F)c3)cc2n(CCNC(N)=O)c1=O | > 1000 | – | – | 15 | –

Reference: ChEMBL document CHEMBL1154111, “Potent, orally bioavailable, liver-selective stearoyl-CoA desaturase (SCD) inhibitors” (Bioorg Med Chem Lett, 2009)
